Assay results as given in PubChem BioAssay (NCI).
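Dose response: 5 concentrations. Exposure: 48 h. Format: 96-well plates. Endpoint: linear interpolation; highest concentration if not reached. GI50 is the concentration that inhibits growth by half. TGI: total growth inhibition.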

Tests used:
Test in all cases: NCI tumour cell line growth inhibition, 48 h
ACHN renal = test system: ACHN renal
DU-145 prostate = test system: DU-145 prostate
IGROV1 ovarian = test system: IGROV1 ovarian
M14 melanoma = test system: M14 melanoma
NCI-H226 lung = test system: NCI-H226 lung
NCI-H522 lung = test system: NCI-H522 lung
OVCAR-3 ovarian = test system: OVCAR-3 ovarian
SK-MEL-2 melanoma = test system: SK-MEL-2 melanoma
SK-MEL-28 melanoma = test system: SK-MEL-28 melanoma
SK-OV-3 ovarian = test system: SK-OV-3 ovarian

SMILES	GI50 (ACHN renal) [µM]	TGI (ACHN renal) [µM]	GI50 (DU-145 prostate) [µM]	TGI (DU-145 prostate) [µM]	GI50 (IGROV1 ovarian) [µM]	TGI (IGROV1 ovarian) [µM]	GI50 (M14 melanoma) [µM]	TGI (M14 melanoma) [µM]	GI50 (NCI-H226 lung) [µM]	TGI (NCI-H226 lung) [µM]	GI50 (NCI-H522 lung) [µM]	TGI (NCI-H522 lung) [µM]	GI50 (OVCAR-3 ovarian) [µM]	TGI (OVCAR-3 ovarian) [µM]	GI50 (SK-MEL-2 melanoma) [µM]	TGI (SK-MEL-2 melanoma) [µM]	GI50 (SK-MEL-28 melanoma) [µM]	TGI (SK-MEL-28 melanoma) [µM]	GI50 (SK-OV-3 ovarian) [µM]	TGI (SK-OV-3 ovarian) [µM]
CNC(=O)c1c(F)cccc1Nc1nc(Nc2cc3c(cc2OC)CCN3C(=O)CN(C)C)nc2[nH]ccc12	8.8	23.1	7.37	24.9	17.5	43.1	1.64	3.37	16.2	43.6	1.56	3.63	15	30.8	4.87	19.8	1.57	2.97	11.5	27.5
O=C(Nc1cc(Cl)cc(Cl)c1)c1cccc(NC2=C(Cl)C(=O)N(Cc3ccccc3)C2=O)c1	31.9	> 100	32.1	> 100	41.1	> 100	35.8	> 100	51.4	> 100	28.5	> 100	21.8	> 100	65.2	> 100	54.7	> 100	33.6	> 100
CCCCCCCCCCNCCSS(=O)(=O)O	10.1	25.4	1.82	3.28	4.82	17.6	0.425	2.64	2.51	5.16	2.09	4.31	1.98	3.46	2.4	6.63	1.65	4.84	2.6	7.58
